The target of assay [1] is NAMPT (human, recombinant, C-terminally His-tagged) (Homo sapiens, UniProt P43490). Briefly: Time-Resolved Fluorescence Resonance Energy Transfer (TR-FRET) Binding Assay of NAMPT. To be noted: 6.8 nM NAMPT, 200 nM probe, equilibrated 3 hours, absence of substrates. A digest of the protocol: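 Recombinant C-terminally His-tagged human NAMPT (6.8 nM) incubated 3 h at room temperature with 200 nM Oregon Green 488–labelled nicotinamide-competitive probe and 1 nM Tb-anti-His antibody in HEPES pH 7.5, 2% DMSO. TR-FRET ratio Em520/Em495 normalized to controls; IC50 from four-parameter logistic fit.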

Assay [2] deals with NAMPT (Homo sapiens, UniProt P43490). Kind of assay: Time-Resolved Fluorescence Resonance Energy Transfer (TR-FRET) Binding Assay of NAMPT with PRPP. To be noted: 2 nM NAMPT, 2 nM probe, 200 uM PRPP and 2.5 mM ATP, equilibrated 16 hours. A digest of the protocol:
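Final mix: 2 nM NAMPT, 2 nM probe, 1 nM Tb-anti-His antibody, 200 uM PRPP, 2.5 mM ATP, 2% DMSO in 1× assay buffer. Equilibrated 16 hours before TR-FRET read, allowing possible enzymatic modification of compounds.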

Sequence of NAMPT (P43490 whole entry): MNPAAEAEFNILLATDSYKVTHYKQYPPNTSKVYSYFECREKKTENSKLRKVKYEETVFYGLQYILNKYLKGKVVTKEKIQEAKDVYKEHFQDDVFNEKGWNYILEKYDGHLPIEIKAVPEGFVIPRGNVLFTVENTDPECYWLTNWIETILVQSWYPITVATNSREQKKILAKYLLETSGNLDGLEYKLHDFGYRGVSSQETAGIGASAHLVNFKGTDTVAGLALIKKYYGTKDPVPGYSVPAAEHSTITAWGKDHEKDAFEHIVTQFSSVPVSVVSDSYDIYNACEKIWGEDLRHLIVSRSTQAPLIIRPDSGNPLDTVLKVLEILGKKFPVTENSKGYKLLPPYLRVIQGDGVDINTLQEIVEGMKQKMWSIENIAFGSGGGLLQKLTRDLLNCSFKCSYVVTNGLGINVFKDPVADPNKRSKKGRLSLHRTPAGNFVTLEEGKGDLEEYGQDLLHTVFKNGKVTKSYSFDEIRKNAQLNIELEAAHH
Sequence of NAMPT (human, recombinant, C-terminally His-tagged) (P43490 whole entry): as above

On to `O=C(Nc1ccc(OC2CCN(CC3CC3)CC2)cc1)C1CN(c2cccnc2)C1` [Example 74, N-(4-{[1-(cyclopropylmethyl)piperidin-4-yl]oxy}phenyl)-1-(pyridin-3-yl)azetidine-3-carboxamide], for which the IC50 is 911 nM in assay [1] and 0.666 nM in assay [2].

`CCCC(C)CN1CCC(Oc2ccc(NC(=O)C3CN(c4cccnc4)C3)cc2)CC1` (stereo not drawn) [Example 75, N-(4-{[1-(2-methylpentyl)piperidin-4-yl]oxy}phenyl)-1-(pyridin-3-yl)azetidine-3-carboxamide]: the IC50 in assay [1] was determined as 1340 nM; in assay [2], 0.719 nM.

With `CC(C)CN1CCC(Oc2ccc(NC(=O)C3CN(c4cccnc4)C3)cc2)CC1` [Example 76, N-(4-{[1-(2-methylpropyl)piperidin-4-yl]oxy}phenyl)-1-(pyridin-3-yl)azetidine-3-carboxamide], the figures for the IC50 in assay [1] and in assay [2] were 1920 nM and 0.44 nM, respectively.

`CC(C)CCN1CCC(Oc2ccc(NC(=O)C3CN(c4cccnc4)C3)cc2)CC1` [Example 77, N-(4-{[1-(3-methylbutyl)piperidin-4-yl]oxy}phenyl)-1-(pyridin-3-yl)azetidine-3-carboxamide]: the IC50 in assay [1] worked out at 3010 nM; in assay [2] it was 0.832 nM.

As to `CCC(CC)CN1CCC(Oc2ccc(NC(=O)C3CN(c4cccnc4)C3)cc2)CC1` [Example 78, N-(4-{[1-(2-ethylbutyl)piperidin-4-yl]oxy}phenyl)-1-(pyridin-3-yl)azetidine-3-carboxamide], the results for the IC50 in assay [1] and in assay [2] were 265 nM and 0.632 nM, respectively.

With `CC(C)(C)CN1CCC(Oc2ccc(NC(=O)C3CN(c4cccnc4)C3)cc2)CC1` [Example 79, N-(4-{[1-(2,2-dimethylpropyl)piperidin-4-yl]oxy}phenyl)-1-(pyridin-3-yl)azetidine-3-carboxamide], the values for the IC50 in assay [1] and in assay [2] were 2690 nM and 0.824 nM, respectively.

As to `CCC(C)CN1CCC(Oc2ccc(NC(=O)C3CN(c4cccnc4)C3)cc2)CC1` (stereo not drawn) [Example 80, N-(4-{[1-(2-methylbutyl)piperidin-4-yl]oxy}phenyl)-1-(pyridin-3-yl)azetidine-3-carboxamide], the half-maximal inhibitory concentration (IC50) in assay [1] is 1600 nM; in assay [2] it was 0.686 nM.

Consider `CCCN1CCC(Oc2ccc(NC(=O)C3CN(c4cccnc4)C3)cc2)CC1` [Example 81, N-{4-[(1-propylpiperidin-4-yl)oxy]phenyl}-1-(pyridin-3-yl)azetidine-3-carboxamide], for which the IC50 is 3720 nM in assay [1] and 1.13 nM in assay [2].

Take `O=C(Nc1ccc(OC2CCN(CCC3CC3)CC2)cc1)C1CN(c2cccnc2)C1` [Example 82, N-(4-{[1-(2-cyclopropylethyl)piperidin-4-yl]oxy}phenyl)-1-(pyridin-3-yl)azetidine-3-carboxamide]: the IC50 in assay [1] is 955 nM; in assay [2] it was 0.526 nM.

In the case of `O=C(Nc1ccc(OC2CCN(CC3CCOC3)CC2)cc1)C1CN(c2cccnc2)C1` (stereo not drawn) [Example 83, 1-(pyridin-3-yl)-N-(4-{[1-(tetrahydrofuran-3-ylmethyl)piperidin-4-yl]oxy}phenyl)azetidine-3-carboxamide], the IC50 in assay [1] came to 1210 nM; in assay [2], 0.503 nM.

As for `CCC(C)(C)CN1CCC(Oc2ccc(NC(=O)C3CN(c4cccnc4)C3)cc2)CC1` [Example 84, N-(4-{[1-(2,2-dimethylbutyl)piperidin-4-yl]oxy}phenyl)-1-(pyridin-3-yl)azetidine-3-carboxamide], the IC50 in assay [1] turned out to be 6070 nM; in assay [2], 1.81 nM.

Regarding `CC(C)(O)C(=O)N1CCC(c2ccc(NC(=O)C3CN(c4ccnnc4)C3)cc2)CC1` [Example 85, N-{4-[1-(2-hydroxy-2-methylpropanoyl)piperidin-4-yl]phenyl}-1-(pyridazin-4-yl)azetidine-3-carboxamide], the IC50 in assay [1] was found to be 32.2 nM; in assay [2], 17 nM.

On to `O=C(Nc1ccc(C2CCN(CC3CCCCC3)CC2)cc1)C1CN(c2cccnc2)C1` [Example 86, N-{4-[1-(cyclohexylmethyl)piperidin-4-yl]phenyl}-1-(pyridin-3-yl)azetidine-3-carboxamide], for which the IC50 in assay [1] was 1260 nM; in assay [2] it was 0.833 nM.

In the case of `CC(C)(C)CCN1CCC(c2ccc(NC(=O)C3CN(c4cccnc4)C3)cc2)CC1` [Example 87, N-{4-[1-(3,3-dimethylbutyl)piperidin-4-yl]phenyl}-1-(pyridin-3-yl)azetidine-3-carboxamide], the values for the IC50 in assay [1] and in assay [2] were 1390 nM and 1.27 nM, respectively.

Turning to `O=C(Nc1ccc(C2CCN(CC3CCCC3)CC2)cc1)C1CN(c2cccnc2)C1` [Example 88, N-{4-[1-(cyclopentylmethyl)piperidin-4-yl]phenyl}-1-(pyridin-3-yl)azetidine-3-carboxamide], the values for the IC50 in assay [1] and in assay [2] were 574 nM and 0.64 nM, respectively.

In the case of `CCC(C)(C)CN1CCC(c2ccc(NC(=O)C3CN(c4cccnc4)C3)cc2)CC1` [Example 89, N-{4-[1-(2,2-dimethylbutyl)piperidin-4-yl]phenyl}-1-(pyridin-3-yl)azetidine-3-carboxamide], the IC50 in assay [1] amounted to 2000 nM; in assay [2] it was 0.647 nM.

`CCCC(C)CN1CCC(c2ccc(NC(=O)C3CN(c4cccnc4)C3)cc2)CC1` (stereo not drawn) [Example 90, N-{4-[1-(2-methylpentyl)piperidin-4-yl]phenyl}-1-(pyridin-3-yl)azetidine-3-carboxamide]: the IC50 is 1410 nM in assay [1] and 0.902 nM in assay [2].

`CCCCN1CCC(c2ccc(NC(=O)C3CN(c4cccnc4)C3)cc2)CC1` [Example 91, N-[4-(1-butylpiperidin-4-yl)phenyl]-1-(pyridin-3-yl)azetidine-3-carboxamide]: the IC50 in assay [1] turned out to be 992 nM; in assay [2], 0.868 nM.

`CCC(CC)CN1CCC(c2ccc(NC(=O)C3CN(c4cccnc4)C3)cc2)CC1` [Example 92, N-{4-[1-(2-ethylbutyl)piperidin-4-yl]phenyl}-1-(pyridin-3-yl)azetidine-3-carboxamide]: the half-maximal inhibitory concentration (IC50) is 784 nM in assay [1] and 0.548 nM in assay [2].

For `CC(C)CCN1CCC(c2ccc(NC(=O)C3CN(c4cccnc4)C3)cc2)CC1` [Example 93, N-{4-[1-(3-methylbutyl)piperidin-4-yl]phenyl}-1-(pyridin-3-yl)azetidine-3-carboxamide], the IC50 is 1220 nM in assay [1] and 1.25 nM in assay [2].

Turning to `CC(C)CN1CCC(c2ccc(NC(=O)C3CN(c4cccnc4)C3)cc2)CC1` [Example 94, N-{4-[1-(2-methylpropyl)piperidin-4-yl]phenyl}-1-(pyridin-3-yl)azetidine-3-carboxamide], the IC50 was 2270 nM in assay [1] and 1.03 nM in assay [2].

Consider `CCCN1CCC(c2ccc(NC(=O)C3CN(c4cccnc4)C3)cc2)CC1` [Example 95, N-[4-(1-propylpiperidin-4-yl)phenyl]-1-(pyridin-3-yl)azetidine-3-carboxamide], for which the IC50 came out at 1360 nM in assay [1] and 1.02 nM in assay [2].

For `COc1ccncc1N1CC(C(=O)Nc2ccc(C3CCN(C(=O)C(C)(C)O)CC3)cc2)C1` [Example 96, N-{4-[1-(2-hydroxy-2-methylpropanoyl)piperidin-4-yl]phenyl}-1-(4-methoxypyridin-3-yl)azetidine-3-carboxamide], the IC50 in assay [1] turned out to be 115 nM; in assay [2], 282 nM.

For `CC(C)(O)C(=O)N1CCC(c2ccc(NC(=O)C3CN(c4cnccc4C#N)C3)cc2)CC1` [Example 97, 1-(4-cyanopyridin-3-yl)-N-{4-[1-(2-hydroxy-2-methylpropanoyl)piperidin-4-yl]phenyl}azetidine-3-carboxamide], the results for the IC50 in assay [1] and in assay [2] were 36.6 nM and 131 nM, respectively.

Take `CCCCC(=O)N1CCC(c2ccc(NC(=O)C3CN(c4cccnc4)C3)cc2)CC1` [Example 98, N-[4-(1-pentanoylpiperidin-4-yl)phenyl]-1-(pyridin-3-yl)azetidine-3-carboxamide]: the values for the IC50 in assay [1] and in assay [2] were 13 nM and 0.209 nM, respectively.

Turning to `CCC(C)CC(=O)N1CCC(c2ccc(NC(=O)C3CN(c4cccnc4)C3)cc2)CC1` (stereo not drawn) [Example 99, N-{4-[1-(3-methylpentanoyl)piperidin-4-yl]phenyl}-1-(pyridin-3-yl)azetidine-3-carboxamide], the IC50 in assay [1] was determined as 13.5 nM; in assay [2], 0.169 nM.

Take `O=C(Nc1ccc(C2CCN(C(=O)CC3C[C@@H]4CC[C@H]3C4)CC2)cc1)C1CN(c2cccnc2)C1` (stereo partly drawn) [Example 100, N-(4-{1-[(1S,4R)-bicyclo[2.2.1]hept-2-ylacetyl]piperidin-4-yl}phenyl)-1-(pyridin-3-yl)azetidine-3-carboxamide]: the IC50 in assay [1] was found to be 30.6 nM; in assay [2] it was 0.497 nM.

Turning to `O=C(Nc1ccc(C2CCN(C(=O)CC3CCCC3)CC2)cc1)C1CN(c2cccnc2)C1` [Example 101, N-{4-[1-(cyclopentylacetyl)piperidin-4-yl]phenyl}-1-(pyridin-3-yl)azetidine-3-carboxamide], the IC50 in assay [1] was determined as 16.5 nM; in assay [2], 0.486 nM.

In the case of `CC1CC1C(=O)N1CCC(c2ccc(NC(=O)C3CN(c4cccnc4)C3)cc2)CC1` (stereo not drawn) [Example 102, N-(4-{1-[(2-methylcyclopropyl)carbonyl]piperidin-4-yl}phenyl)-1-(pyridin-3-yl)azetidine-3-carboxamide], the IC50 in assay [1] came out at 8.84 nM; in assay [2], 0.21 nM.

As for `O=C(Nc1ccc(C2CCN(C(=O)CN3CCOCC3)CC2)cc1)C1CN(c2cccnc2)C1` [Example 103, N-{4-[1-(morpholin-4-ylacetyl)piperidin-4-yl]phenyl}-1-(pyridin-3-yl)azetidine-3-carboxamide], the IC50 was determined as 56.2 nM in assay [1] and 0.493 nM in assay [2].
